Laboratory results as given in ChEMBL document CHEMBL1142574, “Identification of radical scavenging compounds in Rhaponticum carthamoides by means of LC-DAD-SPE-NMR” (J Nat Prod, 2005).

Assays:
[1] = test system: Radical scavenging activity; assay: Antioxidant activity assessed as DPPH radical scavenging activity studied at DPPH to compound ratio of 5; assay type: functional; conditions: dose or concentration not given here
[2] = test system: Radical scavenging activity; assay: Antioxidant activity assessed as DPPH radical scavenging activity studied at DPPH to compound ratio of 2; assay type: functional; conditions: dose or concentration not given here

Compound | inhibition [1] | inhibition [2]
CC(=O)OC[C@H]1O[C@@H](Oc2cc3oc(-c4ccc(O)cc4)c(O)c(=O)c3c(O)c2O)[C@H](O)[C@@H](O)[C@@H]1O | 36% | 75%
Cc1c(C)c2c(c(C)c1O)CCC(C)(C(=O)O)O2 (stereo unspecified) | 79% | 98%
O=C(/C=C/c1ccc(O)c(O)c1)O[C@H](Cc1ccc(O)c(O)c1)C(=O)O | 89% | 98%
